From patent publication US20230063538A1, “LARGE SCALE PROCESS” (GALECTO BIOTECH AB, priority 2019, published 2023)

Experiment: Solid-state characterisation of polymorphic Form 1 (hygroscopicity)
Type: physicochemical
Settings: crystalline polymorphic Form 1 of the compound of formula (I)

## OC[C@H]1O[C@H](Sc2cncc(Br)c2)[C@H](O)[C@@H](n2cc(-c3cc(F)c(F)c(F)c3)nn2)[C@H]1O [Form 1, 5-Bromopyridin-3-yl 3-deoxy-3-[4-(3,4,5-trifluorophenyl)-1H-1,2,3-triazol-1-yl]-1-thio-α-D-galactopyranoside]
  hygroscopicity: not hygroscopic
